According to PMC5418711, “Safety and efficacy of the choline analogue SAR97276 for malaria treatment: results of two phase 2, open-label, multicenter trials in African patients” (Malaria Journal, 2017):

Tested on: P. falciparum
Assay: Study 1: phase 2 trial, efficacy of SAR97276A in uncomplicated falciparum malaria patients
Assay type: in vivo, Plasmodium falciparum
Details: for Median time to 50% parasite reduction (95% CI) / Median time to 90% parasite reduction (95% CI): Kaplan–Meier; for Recurrences up to day 28: patients judged successfully treated after 72 h
Procedure: The study was designed to enroll up to 210 malaria patients in sequential cohorts. A staggered trial design was planned to assess a single, IM dose of SAR97276A (0.18 mg/kg, or 12.5 mg fixed dose) first in adults and then progressively in children (age 7–17 years) and young children (age 0.5–7 years). Age de-escalation of the study was only allowed if threshold response rate in the respective study cohort was met (26 patients out of 30 patients need to have met the 4 criteria of the primary endpoint at 72 h plus adequate safety results). If efficacy criteria were not met but safety was acceptable, SAR97276A would be tested as a 3-day IM regimen (3 injections, 24 h apart) in an additionally recruited 30 patients of the respective cohort. Subsequently, in case of acceptable safety and efficacy, all following cohorts were treated with the 3-day IM regimen. In parallel, SAR97276A was planned to be tested as a single, IV dose (0.14 mg/kg or 10 mg fixed dose) first in adults and then in young children with severe malaria, if threshold response rate was met. An overview of this adaptive study design can be seen in Fig. 1 and Table 1.
The following age cohorts were planned to be enrolled: (i) Adults aged 18–65 years, body weight ≥50 kg, and uncomplicated malaria with P. falciparum ≥100 parasites/µL; (ii) children aged 7–17 years, and uncomplicated malaria with P. falciparum ≥1000 parasites/µL, and (iii) young children aged of 0.5–7 years with uncomplicated malaria (P. falciparum count ≥1000 parasites/µL) and as an additional group with symptoms or signs of severe malaria according to WHO [9]. Adults received SAR97276A either by IM (study group 1A and 1B) or by IV route (study group 1C). Children received SAR97276A only by IM injection (study group 1D). Young children (0.5–7 years) both with uncomplicated and with severe malaria were not included as Study 1 was stopped before reaching these cohorts due to lack of efficacy.
Study duration and follow-up In both studies, study duration was 28 days for each patient including a screening period of up to 12 h before inclusion into the study. Participants were hospitalized for at least 3 days (72 h) after the start of treatment. Follow-up visits were done on day 6, 8, 14 ± 2, 21 ± 2, 28 ± 2 (Study 1); and day 7, 14 ± 2, 21 ± 2, 28 ± 2 (Study 2). Patient examination Fever measurements and thick blood smears were done every 6 h until 72 h and at each follow-up visit. Parasitemia was determined microscopically by Giemsa stained thick blood smear by two trained microscopists blinded to each other. Safety assessment Safety analysis was based on AEs including vision assessment recorded from baseline until day 28 (in binocular conditions, for near and distant visual acuity, using standard optotypes appropriate for patient’s age and reading ability. Tests with standard corrective glasses (+3 and −3 diopters) were performed in case of visual adverse events, to assess whether vision improved or worsened with corrective glasses). Laboratory tests including hematology, biochemistry and urine analysis were done at baseline, day 2, 4, 28 (Study 1), or baseline, day 2, 4, 14, 28 (Study 2); vital signs were recorded at baseline, every 6 h until 72 h and on each follow up visit. An electrocardiogram (ECG) was done at baseline, day 4, 28 (Study 1), or baseline, 48 h, 72 h, day 28 (Study 2). For Study 2 respiratory parameters (respiratory rate, peak flow, efficiency of cough) were also checked at baseline and 30 min after first dose on day 1, 2 and 3.
Definition of fever clearance Fever was defined as temperature ≥38 °C.
Definition of general condition improvement The symptoms were scored at baseline and every 6 h up to day 4 (72 h), including headache, fatigue, nausea-vomiting and abdominal pain. The symptoms were scored according to the following scale: absent -0-, mild -1-, moderate -2- and severe -3-. The total clinical score ranged between 0 and 12. […]

[1] = Group 1A: 1 day IM 0.18 mg/kg, adults, N=34
[2] = Group 1A: 1 day IM 0.18 mg/kg, adults, PCR data available 12/14
[3] = Group 1B: 3 days IM 0.18 mg/kg, adults, N=30
[4] = Group 1B: 3 days IM 0.18 mg/kg, adults, PCR data available 11/13
[5] = Group 1C: 1 day IV 0.14 mg/kg, adults, N=30
[6] = Group 1C: 1 day IV 0.14 mg/kg, adults, PCR data available 10/15
[7] = Group 1D: 3 days IM 0.18 mg/kg, children
[8] = Group 1D: 3 days IM 0.18 mg/kg, children, N=19
[9] = Group 1D: 3 days IM 0.18 mg/kg, children, PCR data available 8/8

## Cc1c(CCO)sc[n+]1CCCCCCCCCCCC[n+]1csc(CCO)c1C [SAR97276A]
[1]
  General condition improvement at 48 h: Failure: 2 (6%)
  General condition improvement at 48 h: Success: 32 (94%)
  Parasite reduction (at least 90% at 72 h): Failure: 11 (32%)
  Parasite reduction (at least 90% at 72 h): Success: 23 (68%)
  Rescue therapy criterion (no need for rescue therapy): Failure: 5 (15%)
  Rescue therapy criterion (no need for rescue therapy): Success: 29 (85%)
  Median time to 50% parasite reduction (95% CI): 18.0 (12.0–24.0) h
  Median time to 90% parasite reduction (95% CI): 30.0 (18.0–30.0) h
[2]
  New infection (PCR genotyped recurrences up to day 28): 9 (75%)
  Recrudescences (PCR genotyped recurrences up to day 28): 3 (25%)
Group 1A: 1 day IM 0.18 mg/kg, adults
  Recurrences up to day 28: 14
[3]
  General condition improvement at 48 h: Failure: 2 (7%)
  General condition improvement at 48 h: Success: 28 (93%)
  Parasite reduction (at least 90% at 72 h): Failure: 2 (7%)
  Parasite reduction (at least 90% at 72 h): Success: 28 (93%)
  Rescue therapy criterion (no need for rescue therapy): Failure: 1 (3%)
  Rescue therapy criterion (no need for rescue therapy): Success: 29 (97%)
  Median time to 50% parasite reduction (95% CI): 18.0 (6.0–24.0) h
  Median time to 90% parasite reduction (95% CI): 24.0 (12.0–36.0) h
[4]
  New infection (PCR genotyped recurrences up to day 28): 6 (54.5%)
  Recrudescences (PCR genotyped recurrences up to day 28): 5 (45.5%)
Group 1B: 3 days IM 0.18 mg/kg, adults
  Recurrences up to day 28: 13
[5]
  General condition improvement at 48 h: Failure: 1 (3%)
  General condition improvement at 48 h: Success: 29 (97%)
  Parasite reduction (at least 90% at 72 h): Failure: 7 (23%)
  Parasite reduction (at least 90% at 72 h): Success: 23 (77%)
  Rescue therapy criterion (no need for rescue therapy): Failure: 1 (3%)
  Rescue therapy criterion (no need for rescue therapy): Success: 29 (97%)
  Median time to 50% parasite reduction (95% CI): 9.0 (6.0–18.0) h
  Median time to 90% parasite reduction (95% CI): 30.0 (18.0–30.0) h
[6]
  New infection (PCR genotyped recurrences up to day 28): 6 (60%)
  Recrudescences (PCR genotyped recurrences up to day 28): 4 (40%)
Group 1C: 1 day IV 0.14 mg/kg, adults
  Recurrences up to day 28: 15
[7]
  Recrudescence of the same parasite until day 14 in successfully cured children (assessed after 72 h): 3/13
  Recurrences up to day 28: 8
Group 1D: 3 days IM 0.18 mg/kg, children's cohort
  Enrolled patients failed to meet the predetermined efficacy response criteria: 5/19
[8]
  General condition improvement at 48 h: Failure: 1 (5%)
  General condition improvement at 48 h: Not evaluable: 1 (5%)
  General condition improvement at 48 h: Success: 17 (90%)
  Parasite reduction (at least 90% at 72 h): Failure: 5 (26%)
  Parasite reduction (at least 90% at 72 h): Not evaluable: 0
  Parasite reduction (at least 90% at 72 h): Success: 14 (74%)
  Rescue therapy criterion (no need for rescue therapy): Failure: 4 (21%)
  Rescue therapy criterion (no need for rescue therapy): Not evaluable: 0
  Rescue therapy criterion (no need for rescue therapy): Success: 15 (79%)
  Median time to 50% parasite reduction (95% CI): 24.0 (12.0–24.0) h
  Median time to 90% parasite reduction (95% CI): 24.0 (24.0–30.0) h
[9]
  New infection (PCR genotyped recurrences up to day 28): 0
  Recrudescences (PCR genotyped recurrences up to day 28): 8 (100%)
Study 1, all groups
  Recurrences in the successfully treated patients until day 28, total: 50
Study 1, all groups, 41 recurrences genotyped by PCR
  New infections among genotyped recurrences, total: 21
